Results from patent US9528090B2, “Differentiation of human embryonic stem cells” (Janssen Biotech, Inc., priority 2010, dated 2016).

Assays:
[1] = system: human embryonic stem cells line H1; test: Definitive endoderm differentiation of H1 cells, single cell seeding (activin A/WNT-3a, MCDB-131): FACS for CXCR4 and CD9; type: cell-based; settings: for % CXCR4 + CD9− / % CXCR4 − CD9+ / % CXCR4 − CD9−: single cell seeding, day 4
Description: Cells of the human embryonic stem cells line H1 (p40-p52) were seeded as single cells at a density of 100000 cells/cm^2 on MATRIGEL® (1:30 dilution) (BD Biosciences; Cat #356231)-coated dishes in MEF-CM (mouse embryonic fibroblast conditioned media) supplemented with 16 ng/ml of FGF2 (Catalog#100-18B, PeproTech, NJ) and 10 μM of Y27632 (Rock inhibitor, Catalogue#Y0503, Sigma, Mo.). 72 hrs post seeding, cultures were differentiated into definitive endoderm (DE) as follows: • a. MCDB-131 (Catalogue#10372-019, Invitrogen, CA) medium supplemented with 2% fatty acid-free BSA (Catalog#68700, Proliant, IA), 0.0025 g/ml sodium bicarbonate (Catalogue #S3187, Sigma, Mo.), 1× GlutaMax™ (Catalogue #35050-079, Invitrogen, Ca) and 100 ng/ml activin A (R&D Systems, MN) plus 20 ng/ml WNT-3a (Catalog#1324-WN-002, R&D Systems, MN) for one day, then • b. MCDB-131 medium supplemented with 2% BSA, sodium bicarbonate, Glutamax, and 100 ng/ml activin A for an additional three days.
In some of the cultures, the cells were treated with the following concentrations of insulin (Catalogue#19278, Sigma, Mo.): 0, 1, 10, 100, 1000, or 10000 ng/ml. At day 4, samples were collected for FACS and gene expression analysis using real-time PCR.
FIG. 5 depicts the CXCR4 and CD9 expression profile of the various treatments as measured by FACS analysis.

[2] = system: human embryonic stem cells line H1; test: Definitive endoderm differentiation of H1 cells, cluster seeding: real-time PCR gene expression; type: cell-based; settings: 1-100 ng/ml of insulin, BSA medium, day 4, real-time PCR
Description: (§1) Cells of the human embryonic stem cells line H1 (p40-p52) were cultured on MATRIGEL® (1:30 dilution) (BD Biosciences; Cat #356231)-coated dishes in MEF-CM (mouse embryonic fibroblast conditioned media) supplemented with 16 ng/ml of FGF2 (Catalog#100-18B, PeproTech, NJ), and differentiated into cells expressing markers characteristic of the definitive endoderm lineage as follows: • a. RPMI medium supplemented with 2% fatty acid-free BSA (Catalog#68700, Proliant, IA), and 100 ng/ml activin A (R&D Systems, MN) plus 20 ng/ml WNT-3a (Catalog#1324-WN-002, R&D Systems, MN) for one day, then • b. RPMI medium supplemented with 2% BSA and 100 ng/ml activin A for an additional three days.
In some of the cultures, the cells were treated with the following dilution of ITS-X (Catalogue#51500-056, Invitrogen, CA): 0, 1:10^6, 1:5×10^5, 1:10^5, 1:10^4. ITS-X is a serum replacement supplemented comprised of 1 mg/ml of Insulin, 0.55 mg/ml of Transferrin, 0.00067 mg/ml of Sodium Selenite, and 0.2 mg/ml of Ethanolamine The range of dilutions of ITS-X correspond to 0, 1 ng/ml, 2 ng/ml, 10 ng/ml, and 100 ng/ml of insulin. As a control, 0.2% FBS (Catalogue#SH30070.03, Hyclone, UT) was used for day 1 of differentiation, 0.5% FBS at day 2 and 2% FBS was used for days 3-4. The FBS treated cultures were not supplemented with ITS-X. […]

[3] = system: human embryonic stem cells line H1; test: Definitive endoderm differentiation of H1 cells, cluster seeding (activin A/WNT-3a, RPMI): FACS for CXCR4 and CD9; type: cell-based; settings: for % CXCR4 + CD9− / % CXCR4 − CD9+ / % CXCR4 − CD9−: cluster seeding, day 4
Description: as §1, with “[…]®” for “MATRIGEL®”
[…] ITS-X is a serum replacement supplemented comprised of 1 mg/ml of Insulin, 0.55 mg/ml of Transferrin, 0.00067 mg/ml of Sodium Selenite, […] As a control, 0.2% FBS (Catalogue#SH30070.03, Hyclone, UT) was used for day 1 of differentiation, 0.5% FBS at day 2 and 2% FBS was used for days 3-4. The FBS treated cultures were not supplemented with ITS-X.
At day 4, samples were collected for FACS and gene expression analysis using real-time PCR.
The cell surface receptor CXCR4 has been previously shown to be a marker of definitive endoderm. CD9 is a marker for undifferentiated ES cells. Consequently, an increase in the expression of CXCR4, and a decrease in the expression of CD9 in a population of cells is indicative for the formation of definitive endoderm.

ES cells = settings: 200 ng/ml of insulin added to 2% FBS, MEF-CM, activin A; cited from earlier work
[4] = super physiological insulin (1-10 μg/ml), BSA medium
[5] = BSA + 100 ng/ml insulin (ITS-X)

With insulin the “% CXCR4 + CD9−” value ([1]; BSA + 1 ng/ml insulin) was 96%, the “% CXCR4 − CD9+” value ([1]; BSA + 1 ng/ml insulin) was 1.5% and the “% CXCR4 − CD9−” value ([1]; BSA + 1 ng/ml insulin) was 0.7%. For the same substance, the “% CXCR4 + CD9−” value ([1]; BSA + 10 ng/ml insulin) was 95%, the “% CXCR4 − CD9+” value ([1]; BSA + 10 ng/ml insulin) was 1.4% and the “% CXCR4 − CD9−” value ([1]; BSA + 10 ng/ml insulin) was 0.7%. The “% CXCR4 + CD9−” value ([1]; BSA + 100 ng/ml insulin) was 90%, the “% CXCR4 − CD9+” value ([1]; BSA + 100 ng/ml insulin) was 4.1% and the “% CXCR4 − CD9−” value ([1]; BSA + 100 ng/ml insulin) was 2%. For the same substance, the “% CXCR4 + CD9−” value ([1]; BSA + 1 μg/ml insulin) was 90%, the “% CXCR4 − CD9+” value ([1]; BSA + 1 μg/ml insulin) was 3.6% and the “% CXCR4 − CD9−” value ([1]; BSA + 1 μg/ml insulin) was 2.2%. For the same substance, the “% CXCR4 + CD9−” value ([1]; BSA + 10 μg/ml insulin) was 84%, the “% CXCR4 − CD9+” value ([1]; BSA + 10 μg/ml insulin) was 6.6% and the “% CXCR4 − CD9−” value ([1]; BSA + 10 μg/ml insulin) was 4.7%. The “CXCR4−CD9+ fraction” value [1, 4] was “increase in expression”, the “percentage of CXCR4+CD9− cells” value [1, 4] was “decrease in the percentage” and the “expression of markers of definitive endoderm (FOXA2, SOX17, CXCR4), mesenchyme (T), extraembryonic (SOX7, AFP)” value [2] was “did not significantly affect”. For the same substance, the “% CXCR4 + CD9−” value ([3]; BSA + 1 ng/ml insulin (ITS-X)) was 70%, the “% CXCR4 − CD9+” value ([3]; BSA + 1 ng/ml insulin (ITS-X)) was 13% and the “% CXCR4 − CD9−” value ([3]; BSA + 1 ng/ml insulin (ITS-X)) was 10%. The “% CXCR4 + CD9−” value ([3]; BSA + 5 ng/ml insulin (ITS-X)) was 67%, the “% CXCR4 − CD9+” value ([3]; BSA + 5 ng/ml insulin (ITS-X)) was 15% and the “% CXCR4 − CD9−” value ([3]; BSA + 5 ng/ml insulin (ITS-X)) was 12%. The “% CXCR4 + CD9−” value ([3]; BSA + 10 ng/ml insulin (ITS-X)) was 69%, the “% CXCR4 − CD9+” value ([3]; BSA + 10 ng/ml insulin (ITS-X)) was 13% and the “% CXCR4 − CD9−” value ([3]; BSA + 10 ng/ml insulin (ITS-X)) was 13%. For the same substance, the “% CXCR4 + CD9−” value [3, 5] was 73%, the “% CXCR4 − CD9+” value [3, 5] was 12% and the “% CXCR4 − CD9−” value [3, 5] was 9%. For the same substance, the “expression of CXCR4, or CD9” value ([3]; BSA medium, any concentration of insulin tested, FACS) was “no significant change” and the “decrease of the expression of SOX17” value (ES cells) was “approximately 70%”.
